# Data published in patent US4520022A, “Substituted vinyl cephalosporins” (priority 1983, dated 1985).
# Read-outs that look alike come from different tables or passages of the source.
# How the values were obtained:
# H. influenzae = assay: In vitro activity against Haemophilis (MIC), H. influenzae; assay type: cell-based; settings: Haemophilus influenzae, Compound 9 lot 2
# in vivo = settings: mouse; for half-life: T1/2
# P. mirabilis A9554 = assay: Protective dose PD50, mice infected with lethal inoculum, oral treatment, P. mirabilis A9554; assay type: in vivo
# S. aureus BX-1633 = assay: Protective dose PD50, mice infected with lethal inoculum, oral treatment, S. aureus BX-1633; assay type: in vivo; settings: Staphylococcus aureus, BX1633, 120 h
# N. meningitidis = assay: In vitro activity against Neisseria (MIC), N. meningitidis; assay type: cell-based
# [1] = system: Gp Ia: S. aureus Smith A9537, A9497, Terajima, A9534, A9601; settings: Staphylococcus aureus
# [2] = mouse, in vivo
# S. pneumoniae = assay: In vitro activity against Streptococci (MIC), S. pneumoniae; assay type: cell-based; settings: Streptococcus pneumoniae, Compound 9 lot 2
# H. influenza A9729 = assay: Protective dose PD50, mice infected with lethal inoculum, oral treatment, H. influenza A9729; assay type: in vivo; settings: Mus musculus, 120 h
# Description: The structure activity correlations drawn from the foregoing in vitro studies are born out by the results of in vivo studies in mice. Table 4 is a tabulation of the protective doses for mice infected with a lethal inoculum of a bacteria. Two different bacteria were employed in the studies, one a Gram+ organism and the other a Gram- organism. The protective dose (PD50) is that dose which when administered to a group of infected mice results in 50% survival after five days. Normally untreated infected mice die within three days following injection of the lethal inoculum.
# Protective Dose PD50 for Mice Infected with Lethal Inoculum
# S. pyogenes A20201 = assay: Protective dose PD50, mice infected with lethal inoculum, oral treatment, S. pyogenes A20201; assay type: in vivo; settings: Streptococcus pyogenes, 120 h
# [3] = system: Gp Ib: S. aureus 193, BX-1633-2 A9606, A15092, Russell, A9602; settings: Staphylococcus aureus
# S. pyogenes = assay: In vitro activity against Streptococci (MIC), S. pyogenes; assay type: cell-based; settings: Streptococcus pyogenes, Compound 9 lot 2
# N. gonorrheae = assay: In vitro activity against Neisseria (MIC), N. gonorrheae; assay type: cell-based
# S. aureus Smith = assay: Protective dose, mice infected with lethal inoculum, oral treatment, S. aureus Smith; assay type: in vivo; settings: Staphylococcus aureus, po, 120 h, oral, read-out: Protective dose (PD50), S. aureus Smith
# E. coli Juhl = assay: Protective dose, mice infected with lethal inoculum, oral treatment, E. coli Juhl; assay type: in vivo
# [4] = system: Gp Ia, Gp Ib, Gn Ia organisms of Table 2; assay: Test medium comparison, agar dilution MIC, Mueller-Hinton agar versus nutrient agar
# bacteria = assay: Antibacterial activity, general statements; settings: in words
# [5] = read-out: Minimum Inhibitory Concentration Gp Ia, Mueller-Hinton agar, run 1, average of five organisms
# [6] = read-out: Minimum Inhibitory Concentration Gp Ia, Mueller-Hinton agar, run 2, average of five organisms
# [7] = read-out: Minimum Inhibitory Concentration Gp Ib, Mueller-Hinton agar, run 1, average of five organisms
# [8] = read-out: Minimum Inhibitory Concentration Gp Ib, Mueller-Hinton agar, run 2, average of five organisms
compound,measurement,setting,value
CC1=C(C(=O)O)N2C(=O)[C@@H](NC(=O)[C@H](N)c3ccc(O)cc3)[C@H]2SC1 [Cefadroxil],MIC,"H. influenzae; H. influenzae A9729, read-out: MIC",6.3 µg/mL
same,MIC,"H. influenzae; H. influenzae A9833, read-out: MIC",6.3 µg/mL
same,MIC,"H. influenzae; H. influenzae A20177, read-out: MIC",6.3 µg/mL
same,MIC,"H. influenzae; H. influenzae A20193, read-out: MIC",6.3 µg/mL
same,MIC,"H. influenzae; H. influenzae A21523, read-out: MIC",6.3 µg/mL
same,MIC,"H. influenzae; H. influenzae A22157, read-out: MIC",6.3 µg/mL
same,MIC,"H. influenzae; H. influenzae A22481, read-out: MIC",6.3 µg/mL
same,MIC,"H. influenzae; H. influenzae A22482, read-out: MIC",6.3 µg/mL
same,MIC,"H. influenzae; H. influenzae A22483, read-out: MIC",6.3 µg/mL
same,MIC,"H. influenzae; H. influenzae A22491, read-out: MIC",6.3 µg/mL
same,MIC,"H. influenzae; H. influenzae, seven strains above, read-out: MIC, Geometric Mean",6.3 µg/mL
same,AUC,"in vivo; im, 20 mg/kg, AUC*",14000 ng·h/mL
same,Cmax,"in vivo; im, 20 mg/kg",21000 ng/mL
same,half-life,"in vivo; im, 20 mg/kg",0.33 h
same,AUC,"in vivo; po, 20 mg/kg, AUC*",18000 ng·h/mL
same,Cmax,"in vivo; po, 20 mg/kg",12000 ng/mL
same,half-life,"in vivo; po, 20 mg/kg",1.2 h
same,AUC,"in vivo; po, 100 mg/kg, AUC",103000 ng·h/mL
same,Cmax,"in vivo; po, 100 mg/kg",56000 ng/mL
same,half-life,"in vivo; po, 100 mg/kg",2.3 h
same,Protective Dose PD50,P. mirabilis A9554,14
same,ED50,S. aureus BX-1633,7.2 mg/kg
same,MIC,"N. meningitidis; N. meningitidis A21487, Compound 9 lot 2",6.3 µg/mL
same,MIC,"N. meningitidis; N. meningitidis A21496, Compound 9 lot 2",6.3 µg/mL
same,MIC,"N. meningitidis; N. meningitidis A21497, Compound 9 lot 2",6.3 µg/mL
same,MIC,"N. meningitidis; Neisseria meningitidis, read-out: MIC",6.3 µg/mL
same,MIC,"N. meningitidis; Neisseria meningitidis, read-out: MIC, Geometric Mean",6.3 µg/mL
same,MIC,[1]; [5],1.2 µg/mL
same,MIC,[1]; [6],1.1 µg/mL
same,T1/2,"[2]; im, 20 mg/kg",0.37 h
same,T1/2,"[2]; po, 20 mg/kg",1.6 h
same,T1/2,"[2]; po, 100 mg/kg",1.5 h
same,MIC,"S. pneumoniae; S. pneumoniae A9585, read-out: MIC",1.6 µg/mL
same,MIC,"S. pneumoniae; S. pneumoniae A15069, read-out: MIC",1.6 µg/mL
same,MIC,"S. pneumoniae; S. pneumoniae A20759, read-out: MIC",3.1 µg/mL
same,MIC,"S. pneumoniae; S. pneumoniae Type I, read-out: MIC",1.6 µg/mL
same,MIC,"S. pneumoniae; S. pneumoniae Type II, I, III, A9585, A15069, read-out: MIC, Geometric Mean",1.6 µg/mL
same,MIC,"S. pneumoniae; S. pneumoniae Type II, read-out: MIC",1.6 µg/mL
same,MIC,"S. pneumoniae; S. pneumoniae Type III, read-out: MIC",1.6 µg/mL
same,ED50,H. influenza A9729,25 mg/kg
same,ED50,S. pyogenes A20201,0.25 mg/kg
same,MIC,[3]; [7],3.6 µg/mL
same,MIC,[3]; [8],4.1 µg/mL
same,MIC,"S. pyogenes; S. pyogenes A9604, read-out: MIC",0.8 µg/mL
same,MIC,"S. pyogenes; S. pyogenes A15040, read-out: MIC",0.8 µg/mL
same,MIC,"S. pyogenes; S. pyogenes A20065, read-out: MIC",0.8 µg/mL
same,MIC,"S. pyogenes; S. pyogenes A20201, read-out: MIC",0.4 µg/mL
same,MIC,"S. pyogenes; S. pyogenes Dick, read-out: MIC",0.8 µg/mL
same,MIC,"S. pyogenes; S. pyogenes S-23, Dick, A9604, A20065, A15040, read-out: MIC, Geometric Mean",0.8 µg/mL
same,MIC,"S. pyogenes; S. pyogenes S-23, read-out: MIC",0.8 µg/mL
same,MIC,"N. gonorrheae; N. gonorrheae A20142, Compound 9 lot 2",6.3 µg/mL
same,MIC,"N. gonorrheae; N. gonorrheae A20143, Compound 9 lot 2",6.3 µg/mL
same,MIC,"N. gonorrheae; N. gonorrheae A20154, Compound 9 lot 2",6.3 µg/mL
same,MIC,"N. gonorrheae; N. gonorrheae A20155, Compound 9 lot 2",6.3 µg/mL
same,MIC,N. gonorrheae; read-out: MIC,6.3 µg/mL
same,MIC,"N. gonorrheae; read-out: MIC, Geometric Mean",6.3 µg/mL
"C/C=C\C1=C(C(=O)O)N2C(=O)[C@@H](NC(=O)[C@H](N)c3ccccc3)[C@H]2SC1 [Compound 24, 7β-(D(-)-2-Amino-2-phenylacetamido)-3-[(Z)-1-propen-1-yl]-3-cephem-4-carboxylic acid]",AUC,"in vivo; im, 20 mg/kg, AUC*",22000 ng·h/mL
same,Cmax,"in vivo; im, 20 mg/kg",31000 ng/mL
same,half-life,"in vivo; im, 20 mg/kg",0.5 h
same,AUC,"in vivo; po, 20 mg/kg, AUC*",15000 ng·h/mL
same,Cmax,"in vivo; po, 20 mg/kg",7800 ng/mL
same,half-life,"in vivo; po, 20 mg/kg",1.3 h
same,AUC,"in vivo; po, 100 mg/kg, AUC",84000 ng·h/mL
same,Cmax,"in vivo; po, 100 mg/kg",40000 ng/mL
same,half-life,"in vivo; po, 100 mg/kg",1.1 h
same,ED50,"S. aureus Smith; 50% survival for 5 days, groups of 5 mice",0.18 mg/kg
same,ED50,"E. coli Juhl; Escherichia coli, po, 120 h, oral, 50% survival for 5 days, groups of 5 mice, read-out: Protective dose (PD50), E. coli Juhl",1.5 mg/kg
same,activity against the Gram- infection,E. coli Juhl; in words,more active against the Gram- infection
same,MIC,[1]; [5],0.23 µg/mL
same,MIC,[1]; [6],0.3 µg/mL
same,T1/2,"[2]; im, 20 mg/kg",0.58 h
same,T1/2,"[2]; po, 20 mg/kg",0.69 h
same,T1/2,"[2]; po, 100 mg/kg",1.1 h
same,MIC,[3]; [7],0.92 µg/mL
same,MIC,[3]; [8],0.92 µg/mL
"C/C=C\C1=C(C(=O)O)N2C(=O)[C@@H](NC(=O)[C@H](N)c3ccc(O)c(OC)c3)[C@H]2SC1 [Compound 42, 7β-[D(-)-2-Amino-2-(4-hydroxy-3-methoxyphenyl)acetamido]-3-[(Z)-1-propen-1-yl]-3-cephem-4-carboxylic Acid]",ED50,"S. aureus Smith; separate run of Compound 42 and BMY28100, cephalexin/cefadroxil controls not available",0.09 mg/kg
same,difference in MIC between the two media,[4],less than three fold
same,antibacterial activity,bacteria,high in vitro and in vivo activity
same,MIC,"[1]; read-out: Minimum Inhibitory Concentration Gp Ia, Mueller-Hinton agar, not part of run 1, tested separately, average of five organisms",0.35 µg/mL
same,MIC,"[1]; read-out: Minimum inhibitory Concentration Gp Ia, Test Medium Comparison, A: Mueller-Hinton agar, average values",0.35 µg/mL
same,MIC,"[1]; read-out: Minimum inhibitory Concentration Gp Ia, Test Medium Comparison, B: Nutrient agar, average values",0.23 µg/mL
same,MIC,"[3]; read-out: Minimum Inhibitory Concentration Gp Ib, Mueller-Hinton agar, not part of run 1, tested separately, average of five organisms",1.2 µg/mL
same,MIC,"[3]; read-out: Minimum inhibitory Concentration Gp Ib, Test Medium Comparison, A: Mueller-Hinton agar, average values",1.2 µg/mL
same,MIC,"[3]; read-out: Minimum inhibitory Concentration Gp Ib, Test Medium Comparison, B: Nutrient agar, average values",0.4 µg/mL
